Tests used:
[1] = tested on: Puccinia recondita f. sp. tritici (the causal agent of wheat leaf rust); assay: Test B: preventive spray on wheat seedlings, disease rating (100 = 100% control; * 50 ppm, ** 10 ppm, *** 250 ppm); assay type: in vivo; settings: 100 = 100% disease control; for pest or weed control at 10 ppm: Puccinia recondita
In short: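 Wheat seedlings sprayed to run-off with compound in acetone/water (50/50) containing 250 ppm PEG400, inoculated next day with Puccinia recondita f. sp. tritici spores. Held 24 h saturated at 20° C, then 6 days at 20° C; disease control rated 0–100 relative to controls.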

[2] = tested on: Phakopsora pachyrhizi (the causal agent of Asian soybean rust); assay: Test A: preventive spray on soybean seedlings, visual disease rating (100 = 100% control; * 50 ppm, ** 10 ppm, *** 250 ppm); assay type: in vivo; settings: 100 = 100% disease control; for pest or weed control at 10 ppm: Phakopsora pachyrhizi
In short: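 Soybean seedlings sprayed to run-off with compound suspended in acetone/water with 250 ppm PEG400 surfactant, inoculated next day with P. pachyrhizi spores. Kept 24 h saturated at 22 °C, then 8 days at 22 °C before visual rating of disease control (0-100) relative to controls.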

[3] = 50 ppm test suspension, 0 = no control
[4] = 10 ppm test suspension, wheat seedlings
[5] = 10 ppm test suspension, soybean seedlings
[6] = 10 ppm test suspension, 0 = no control

| Compound | Test B disease control rating [1, 4] | Test A disease control rating [2, 5] | further results |
| --- | --- | --- | --- |
| CCOC(=O)C1=NOC(Cc2ccc(OC=C(OCC)C(F)(F)F)cc2)C1 (centres unmarked) [compound 287] |  |  | Test B disease control rating [1, 3]: 0%; Test A disease control rating [2, 3]: 77% |
| CCO/C(=C\Oc1ccc(Cc2nc(C(=O)NCC(F)(F)F)cs2)cc1)C(F)(F)F [compound 129] | 0% | 100% |  |
| CCOC(=O)c1cnn(CCCc2cccc(O/C=C(\OCC)C(F)(F)F)c2)c1 [compound 421] |  |  | Test B disease control rating [1, 6]: 0%; Test A disease control rating [2, 6]: 0% |
| CCOC(=O)c1ccnn1Cc1ccc(F)c(O/C=C(\OCC)C(F)(F)F)c1 [compound 419] |  |  | Test B disease control rating [1, 6]: 0%; Test A disease control rating [2, 6]: 0% |
| CCO/C(=C\Oc1ccc(Cn2cccn2)cc1)C(F)(F)F [compound 151] | 0% | 0% |  |
| CCO/C(=C\Oc1ccc(Cc2nc(C(=O)NCC3CC3)cs2)cc1)C(F)(F)F [compound 130] | 0% | 100% |  |
| COC(C)C(=O)NCc1ccc(OCC2(C(F)(F)F)OCCO2)cc1 (centres unmarked) [compound 214] | 0% | 0% |  |
| C=C(C)COC(=O)c1cnn(Cc2ccc(OCC(O)(O)C(F)(F)F)cc2)c1 [compound 40] | 68% | 91% |  |
| N#CCc1ccc(OCC2(C(F)(F)F)OCCO2)cc1 [compound 239] | 0% | 0% |  |
| CCOC(=O)c1cncn1Cc1cccc(O/C=C(\OCC)C(F)(F)F)c1 [compound 447] |  |  | pest or weed control at 10 ppm [1, 6]: 0%; pest or weed control at 10 ppm [2, 6]: 0% |
| CCOC(=O)c1ccn(Cc2ccc(OCC3(C(F)(F)F)OCCO3)cc2)n1 [compound 232] | 0% | 98% |  |
| CCO/C(=C\Oc1ccc(CNS(=O)(=O)CC)cc1)C(F)(F)F [compound 149] | 0% | 0% |  |
| CCO/C(=C\Oc1ccc(CCn2cc(C(=O)O)cn2)cc1)C(F)(F)F [compound 328] |  |  | Test B disease control rating [1, 6]: 0%; Test A disease control rating [2, 6]: 100% |
| CCO/C(=C\Oc1ccc(Cn2ccc(C(=O)OCC3CCC3)n2)cc1)C(F)(F)F [compound 361] |  |  | Test B disease control rating [1, 6]: 0%; Test A disease control rating [2, 6]: 100% |
| CCOC(=O)C1=NOC(Cc2ccc(OCC3(C(F)(F)F)OCCO3)cc2)C1 (centres unmarked) [compound 289] |  |  | Test B disease control rating [1, 6]: 0%; Test A disease control rating [2, 6]: 0% |
| CCO/C(=C\Oc1ccc(CO)cc1)C(F)(F)F [compound 195] | 0% | 0% |  |
| CCO/C(=C\Oc1ccc(Cn2cncn2)cc1)C(F)(F)F [compound 157] | 9% | 0% |  |
| CCOC(=O)c1csc(Cc2cccc(O/C=C(\OCC)C(F)(F)F)c2)n1 [compound 370] |  |  | Test B disease control rating [1, 6]: 0%; Test A disease control rating [2, 6]: 0% |
| COC(=O)NN=Cc1ccc(OCC(O)(O)C(F)(F)F)cc1 [compound 33] | 86% | 96% |  |
| CCOC(=O)c1cnn(Cc2cccc(O/C=C(\OC)C(F)(F)F)c2)c1 [compound 365] |  |  | Test B disease control rating [1, 6]: 0%; Test A disease control rating [2, 6]: 100% |
| CCOC(=O)c1ccnn1Cc1ccc(OC)c(O/C=C(\OCC)C(F)(F)F)c1 [compound 463] |  |  | Test B disease control rating [1, 6]: 0%; Test A disease control rating [2, 6]: 0% |
| CCOC(=O)c1cnn(Cc2ccc(CCC(O)(O)C(F)(F)F)cc2)c1 [compound 66] |  |  | Test B disease control rating ([1]; 50 ppm test suspension, wheat seedlings): 89%; Test A disease control rating ([2]; 50 ppm test suspension, soybean seedlings): 92% |
| CCOC(=COc1ccc(Cn2ccc(C(F)(F)F)n2)cc1)C(F)(F)F [compound 181] | 0% | 0% |  |
| CCO/C(=C\Oc1ccc(Cn2cc(Cl)cn2)cc1)C(F)(F)F [compound 180] | 0% | 0% |  |
| CCOC(=O)c1cnn(Cc2ccc(O/C=C(\OCC)C(F)(F)F)cc2)n1 [compound 119] | 0% | 97% |  |

| Compound | Test B disease control rating [1, 4] | Test A disease control rating [2, 5] | further results |
| --- | --- | --- | --- |
| O=C(OCC(F)(F)F)c1cnn(Cc2ccc(OCC(O)(O)C(F)(F)F)cc2)c1 [compound 45] | 85% | 87% |  |
| OC(O)(CCc1ccc(Cn2ccc3ccccc32)cc1)C(F)(F)F [compound 30] | 0% | 0% |  |
| CCOC(=COc1ccc(Cc2ccnc(S(C)(=O)=O)n2)cc1)C(F)(F)F [compound 307] |  |  | Test B disease control rating [1, 3]: 0%; Test A disease control rating [2, 3]: 0% |
| CCO/C(=C\Oc1ccc(COC(N)=O)cc1)C(F)(F)F [compound 193] | 86% | 0% |  |
| CCOC(=O)c1ccn(Cc2ccc(F)c(O/C=C(\OCC)C(F)(F)F)c2)n1 [compound 420] |  |  | Test B disease control rating [1, 6]: 0%; Test A disease control rating [2, 6]: 0% |
| CCO/C(=C\Oc1ccc(Cn2cncc2C(=O)OC)cc1)C(F)(F)F [compound 85] | 0% | 89% |  |
| CCO/C(=C\Oc1cccc(Cn2cc(C(=O)OCCOC(F)(F)F)cn2)c1)C(F)(F)F [compound 352] |  |  | Test B disease control rating [1, 6]: 0%; Test A disease control rating [2, 6]: 100% |
| O=C(OCc1ccc(F)c(F)c1)c1cnn(Cc2ccc(OCC(O)(O)C(F)(F)F)cc2)c1 [compound 50] | 91% | 54% |  |
| O=C(OCc1cccnc1)c1cnn(Cc2ccc(OCC3(C(F)(F)F)OCCO3)cc2)c1 [compound 200] | 0% | 100% |  |
| CCO/C(=C\Oc1ccc(C=O)cc1)C(F)(F)F [compound 148] | 0% | 0% |  |
| CCO/C(=C\Oc1ccc(CC#N)cc1)C(F)(F)F [compound 154] | 0% | 0% |  |
| CCO/C(=C\Oc1cccc(Cn2cc(C(=O)OCC3CCC3)cn2)c1)C(F)(F)F [compound 342] |  |  | Test B disease control rating [1, 6]: 0%; Test A disease control rating [2, 6]: 100% |
| CCO/C(=C\Oc1ccc(CN2C(=O)c3ccccc3C2=O)cc1)C(F)(F)F [compound 184] | 0% | 0% |  |
| CCOC(=COc1ccc(CN2CCC(C#N)CC2)cc1)C(F)(F)F [compound 311] |  |  | Test B disease control rating [1, 6]: 0%; Test A disease control rating [2, 6]: 0% |
| CCNC(=O)N1CC(c2ccc(OCC3(C(F)(F)F)OCCO3)cc2)C1 [compound 411] |  |  | Test B disease control rating [1, 3]: 0%; Test A disease control rating [2, 3]: 87% |
| O=C(OCc1ccncc1)c1cnn(Cc2ccc(OCC3(C(F)(F)F)OCCO3)cc2)c1 [compound 201] | 0% | 100% |  |
| CCO/C(=C\Oc1ccc(Cn2cc(C(=O)OC(C)(C)C)cn2)cc1)C(F)(F)F [compound 89] | 0% | 0% |  |
| CCO/C(=C\Oc1ccc(S(C)(=O)=O)cc1)C(F)(F)F [compound 60] | 0% | 0% |  |
| CCOC(=O)c1cn(Cc2cccc(O/C=C(\OCC)C(F)(F)F)c2)cn1 [compound 446] |  |  | pest or weed control at 10 ppm [1, 6]: 0%; pest or weed control at 10 ppm [2, 6]: 98% |
| Cc1ccc(OCC(O)(O)C(F)(F)F)cc1 [compound 396] |  |  | Test B disease control rating [1, 3]: 19%; Test A disease control rating [2, 3]: 31% |
| CCOC(=O)Cc1nnn(Cc2ccc(O/C=C(\OCC)C(F)(F)F)cc2)n1 [compound 83] | 0% | 82% |  |
| CCCOC(=O)c1ccn(Cc2ccc(OC=C(OCC)C(F)(F)F)cc2)n1 [compound 292] |  |  | Test B disease control rating [1, 6]: 0%; Test A disease control rating [2, 6]: 100% |
| CCOC(=COc1ccc(Cn2ccc(C(=O)OC(C)(C)C)n2)cc1)C(F)(F)F [compound 253] | 0% | 0% |  |
| CCCO/C(=C\Oc1ccc(Cn2cc(C(=O)OCC)cn2)cc1)C(F)(F)F [compound 65] | 0% | 100% |  |

From patent US20240122180A1, “FUNGICIDAL HALOMETHYL KETONES AND HYDRATES AND THEIR MIXTURES” (FMC Corporation, priority 2020, published 2024)
